Test results reported in the NIST ThermoML archive (doi:10.1016/j.fluid.2008.01.004).

Assay: mn = molality of the nth substance listed, in mol/kg
Details: 101 kPa, Liquid; for speed of sound: Sing-around technique in a fixed-path interferometer; for molar conductivity: digital conductivity meter

O=P([O-])([O-])[O-].[Na+].[Na+].[Na+] [trisodium phosphate] + O
Details | mass density [kg/m3] | molar conductivity [S·m2/mol] | speed of sound [m/s]
283.15 K, m1 = 0.0026 | – | 0.0382 | –
283.15 K, m1 = 0.0039 | – | 0.0361 | –
283.15 K, m1 = 0.0053 | – | 0.0348 | –
283.15 K, m1 = 0.0089 | 1001.51 | – | 1450.7
283.15 K, m1 = 0.0105 | 1001.84 | 0.0306 | 1451.2
283.15 K, m1 = 0.0116 | 1002.06 | – | 1451.5
283.15 K, m1 = 0.0132 | 1002.38 | 0.0293 | 1452
283.15 K, m1 = 0.0183 | 1003.44 | 0.0275 | 1453.4
283.15 K, m1 = 0.0234 | 1004.45 | 0.0259 | 1455
283.15 K, m1 = 0.0342 | 1006.62 | 0.0234 | 1457.8
283.15 K, m1 = 0.045 | 1008.77 | 0.0218 | 1460.7
283.15 K, m1 = 0.0563 | 1011 | 0.0211 | 1463.6
283.15 K, m1 = 0.0662 | 1012.94 | 0.0197 | 1466.1
283.15 K, m1 = 0.0767 | – | 0.0192 | –
283.15 K, m1 = 0.088 | 1017.25 | 0.0186 | 1471.7
283.15 K, m1 = 0.0968 | 1018.97 | 0.0179 | 1473.9
283.15 K, m1 = 0.1086 | 1021.25 | 0.0178 | 1476.8
283.15 K, m1 = 0.1133 | 1022.18 | 0.0173 | 1477.9
283.15 K, m1 = 0.1296 | 1025.36 | 0.0166 | 1482
283.15 K, m1 = 0.141 | 1027.58 | 0.0161 | 1484.8
283.15 K, m1 = 0.1515 | 1029.56 | 0.0158 | 1487.3
283.15 K, m1 = 0.1638 | 1031.95 | 0.0159 | 1490.3
283.15 K, m1 = 0.1755 | 1034.17 | 0.0155 | 1493.1
283.15 K, m1 = 0.1868 | 1036.39 | 0.0153 | 1496
283.15 K, m1 = 0.1954 | 1037.96 | 0.0154 | 1498
283.15 K, m1 = 0.2224 | 1043.23 | 0.0145 | 1504.6
283.15 K, m1 = 0.2333 | 1045.32 | 0.0143 | 1507.2
283.15 K, m1 = 0.2509 | 1048.59 | 0.0142 | 1511.4
288.15 K, m1 = 0.0026 | – | 0.0395 | –
288.15 K, m1 = 0.0039 | – | 0.0369 | –
288.15 K, m1 = 0.0053 | – | 0.0363 | –
288.15 K, m1 = 0.0089 | 1000.88 | – | 1469
288.15 K, m1 = 0.0105 | 1001.2 | 0.0325 | 1469.5
288.15 K, m1 = 0.0116 | 1001.42 | – | 1469.8
288.15 K, m1 = 0.0132 | 1001.74 | 0.0318 | 1470.2
288.15 K, m1 = 0.0183 | 1002.77 | 0.0292 | 1471.6
288.15 K, m1 = 0.0234 | 1003.77 | 0.0281 | 1473.1
288.15 K, m1 = 0.0342 | 1005.91 | 0.0253 | 1475.8
288.15 K, m1 = 0.045 | 1008.04 | 0.0236 | 1478.6
288.15 K, m1 = 0.0563 | 1010.23 | 0.0223 | 1481.5
288.15 K, m1 = 0.0662 | 1012.15 | 0.0216 | 1483.9
288.15 K, m1 = 0.0767 | – | 0.021 | –
288.15 K, m1 = 0.088 | 1016.4 | 0.0199 | 1489.3
288.15 K, m1 = 0.0968 | 1018.1 | 0.0196 | 1491.5
288.15 K, m1 = 0.1086 | 1020.35 | 0.0191 | 1494.3
288.15 K, m1 = 0.1133 | 1021.28 | 0.0188 | 1495.4
288.15 K, m1 = 0.1296 | 1024.4 | 0.0181 | 1499.3
288.15 K, m1 = 0.141 | 1026.61 | 0.0175 | 1502.1
288.15 K, m1 = 0.1515 | 1028.56 | 0.0174 | 1504.5
288.15 K, m1 = 0.1638 | 1030.93 | 0.0174 | 1507.4
288.15 K, m1 = 0.1755 | 1033.12 | 0.0168 | 1510.1
288.15 K, m1 = 0.1868 | 1035.32 | 0.0165 | 1512.9
288.15 K, m1 = 0.1954 | 1036.87 | 0.0162 | 1514.8
288.15 K, m1 = 0.2224 | 1042.08 | 0.0153 | 1521.3
288.15 K, m1 = 0.2333 | 1044.14 | 0.0152 | 1523.9
288.15 K, m1 = 0.2509 | 1047.38 | 0.015 | 1527.9
293.15 K, m1 = 0.0026 | – | 0.0406 | –
293.15 K, m1 = 0.0039 | – | 0.0379 | –
293.15 K, m1 = 0.0053 | – | 0.038 | –
293.15 K, m1 = 0.0089 | 999.952 | – | 1485.1
293.15 K, m1 = 0.0105 | 1000.27 | 0.0342 | 1485.6
293.15 K, m1 = 0.0116 | 1000.49 | – | 1486
293.15 K, m1 = 0.0132 | 1000.8 | 0.0333 | 1486.3
293.15 K, m1 = 0.0183 | 1001.83 | 0.0309 | 1487.7
293.15 K, m1 = 0.0234 | 1002.81 | 0.0297 | 1489.2
293.15 K, m1 = 0.0342 | 1004.92 | 0.0264 | 1491.8
293.15 K, m1 = 0.045 | 1007.02 | 0.0249 | 1494.5
293.15 K, m1 = 0.0563 | 1009.2 | 0.0236 | 1497.3
293.15 K, m1 = 0.0662 | 1011.09 | 0.0227 | 1499.7
293.15 K, m1 = 0.0767 | – | 0.0218 | –
293.15 K, m1 = 0.088 | 1015.29 | 0.0209 | 1504.9
293.15 K, m1 = 0.0968 | 1016.97 | 0.0206 | 1507
293.15 K, m1 = 0.1086 | 1019.2 | 0.0201 | 1509.7
293.15 K, m1 = 0.1133 | 1020.11 | 0.0198 | 1510.8
293.15 K, m1 = 0.1296 | 1023.21 | 0.0189 | 1514.6
293.15 K, m1 = 0.141 | 1025.39 | 0.0185 | 1517.3
293.15 K, m1 = 0.1515 | 1027.32 | 0.0182 | 1519.7
293.15 K, m1 = 0.1638 | 1029.67 | 0.0181 | 1522.5
293.15 K, m1 = 0.1755 | 1031.84 | 0.0176 | 1525.2
293.15 K, m1 = 0.1868 | 1034.01 | 0.0172 | 1527.8
293.15 K, m1 = 0.1954 | 1035.55 | 0.0171 | 1529.7
293.15 K, m1 = 0.2224 | 1040.71 | 0.0162 | 1536
293.15 K, m1 = 0.2333 | 1042.76 | 0.016 | 1538.5
293.15 K, m1 = 0.2509 | 1045.97 | 0.0157 | 1542.4
298.15 K, m1 = 0.0026 | – | 0.0415 | –
298.15 K, m1 = 0.0039 | – | 0.0401 | –
298.15 K, m1 = 0.0053 | – | 0.0392 | –
298.15 K, m1 = 0.0089 | 998.77 | – | 1499.3
298.15 K, m1 = 0.0105 | 999.088 | 0.0359 | 1499.8
298.15 K, m1 = 0.0116 | 999.3 | – | 1500.2
298.15 K, m1 = 0.0132 | 999.611 | 0.0347 | 1500.5
298.15 K, m1 = 0.0183 | 1000.62 | 0.0328 | 1501.8
298.15 K, m1 = 0.0234 | 1001.6 | 0.031 | 1503.3
298.15 K, m1 = 0.0342 | 1003.68 | 0.028 | 1505.8
298.15 K, m1 = 0.045 | 1005.76 | 0.0263 | 1508.5
298.15 K, m1 = 0.0563 | 1007.91 | 0.025 | 1511.1
298.15 K, m1 = 0.0662 | 1009.78 | 0.0239 | 1513.4
298.15 K, m1 = 0.0767 | – | 0.0231 | –
298.15 K, m1 = 0.088 | 1013.95 | 0.0221 | 1518.5
298.15 K, m1 = 0.0968 | 1015.61 | 0.0217 | 1520.6
298.15 K, m1 = 0.1086 | 1017.82 | 0.0211 | 1523.3
298.15 K, m1 = 0.1133 | 1018.73 | 0.0207 | 1524.3
298.15 K, m1 = 0.1296 | 1021.79 | 0.0199 | 1528
298.15 K, m1 = 0.141 | 1023.96 | 0.0195 | 1530.7
298.15 K, m1 = 0.1515 | 1025.87 | 0.0193 | 1532.9
298.15 K, m1 = 0.1638 | 1028.19 | 0.0191 | 1535.7
298.15 K, m1 = 0.1755 | 1030.35 | 0.0186 | 1538.3
298.15 K, m1 = 0.1868 | 1032.5 | 0.018 | 1540.8
298.15 K, m1 = 0.1954 | 1034.03 | 0.0178 | 1542.7
298.15 K, m1 = 0.2224 | 1039.14 | 0.0169 | 1548.8
298.15 K, m1 = 0.2333 | 1041.17 | 0.0168 | 1551.2
298.15 K, m1 = 0.2509 | 1044.36 | 0.0163 | 1555
303.15 K, m1 = 0.0026 | – | 0.0409 | –
303.15 K, m1 = 0.0039 | – | 0.0404 | –
303.15 K, m1 = 0.0053 | – | 0.0398 | –
303.15 K, m1 = 0.0089 | 997.355 | – | 1511.7
303.15 K, m1 = 0.0105 | 997.668 | 0.0367 | 1512.1
303.15 K, m1 = 0.0116 | 997.879 | – | 1512.5
303.15 K, m1 = 0.0132 | 998.187 | 0.0355 | 1512.8
303.15 K, m1 = 0.0183 | 999.189 | 0.0333 | 1514.1
303.15 K, m1 = 0.0234 | 1000.15 | 0.0318 | 1515.6
303.15 K, m1 = 0.0342 | 1002.22 | 0.029 | 1518
303.15 K, m1 = 0.045 | 1004.28 | 0.0274 | 1520.6
303.15 K, m1 = 0.0563 | 1006.41 | 0.0259 | 1523.2
303.15 K, m1 = 0.0662 | 1008.27 | 0.0248 | 1525.5
303.15 K, m1 = 0.0767 | – | 0.0238 | –
303.15 K, m1 = 0.088 | 1012.39 | 0.023 | 1530.5
303.15 K, m1 = 0.0968 | 1014.04 | 0.0226 | 1532.4
303.15 K, m1 = 0.1086 | 1016.24 | 0.0216 | 1535
303.15 K, m1 = 0.1133 | 1017.13 | 0.0215 | 1536.1
303.15 K, m1 = 0.1296 | 1020.18 | 0.0208 | 1539.6
303.15 K, m1 = 0.141 | 1022.32 | 0.0201 | 1542.2
303.15 K, m1 = 0.1515 | 1024.22 | 0.0198 | 1544.4
303.15 K, m1 = 0.1638 | 1026.53 | 0.0198 | 1547.1
303.15 K, m1 = 0.1755 | 1028.66 | 0.0193 | 1549.6
303.15 K, m1 = 0.1868 | 1030.8 | 0.0186 | 1552.1
303.15 K, m1 = 0.1954 | 1032.32 | 0.0182 | 1553.9
303.15 K, m1 = 0.2224 | 1037.39 | 0.0173 | 1559.9
303.15 K, m1 = 0.2333 | 1039.41 | 0.0171 | 1562.2
303.15 K, m1 = 0.2509 | 1042.57 | 0.0167 | 1565.9
